Results as given in PubChem BioAssay (NCI).
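Test compounds were applied to cells in 96-well plates for 48 hours at 5 doses. Here, GI50 denotes the concentration required for 50% inhibition of growth. At the TGI there is no net growth.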

Legend:
Assay in all cases: growth of human tumour cells (NCI), 48 h
786-0 renal = test system: 786-0 renal
A498 renal = test system: A498 renal
A549 NSCLC = test system: A549 NSCLC
ACHN renal = test system: ACHN renal
BT-549 breast = test system: BT-549 breast
CAKI-1 renal = test system: CAKI-1 renal
CCRF-CEM leukemia = test system: CCRF-CEM leukemia
COLO 205 colon = test system: COLO 205 colon
DU-145 prostate = test system: DU-145 prostate
EKVX NSCLC = test system: EKVX NSCLC
HCT-116 colon = test system: HCT-116 colon
HCT-15 colon = test system: HCT-15 colon
HOP-62 NSCLC = test system: HOP-62 NSCLC
HOP-92 NSCLC = test system: HOP-92 NSCLC
HS 578T breast = test system: HS 578T breast
HT29 colon = test system: HT29 colon
IGROV1 ovarian = test system: IGROV1 ovarian
K-562 leukemia = test system: K-562 leukemia
KM12 colon = test system: KM12 colon
LOX IMVI melanoma = test system: LOX IMVI melanoma
M14 melanoma = test system: M14 melanoma
MALME-3M melanoma = test system: MALME-3M melanoma
MCF7 breast = test system: MCF7 breast
MDA-MB-231 breast = test system: MDA-MB-231 breast
MDA-MB-435 = test system: MDA-MB-435
MOLT-4 leukemia = test system: MOLT-4 leukemia
NCI-H226 lung = test system: NCI-H226 lung
NCI-H23 lung = test system: NCI-H23 lung
NCI-H460 lung = test system: NCI-H460 lung
NCI-H522 lung = test system: NCI-H522 lung
NCI/ADR-RES ovarian = test system: NCI/ADR-RES ovarian
OVCAR-3 ovarian = test system: OVCAR-3 ovarian
OVCAR-4 ovarian = test system: OVCAR-4 ovarian
OVCAR-5 ovarian = test system: OVCAR-5 ovarian
OVCAR-8 ovarian = test system: OVCAR-8 ovarian
PC-3 prostate = test system: PC-3 prostate
RPMI-8226 leukemia = test system: RPMI-8226 leukemia
RXF 393 renal = test system: RXF 393 renal
SF-268 CNS = test system: SF-268 CNS
SF-295 CNS = test system: SF-295 CNS
SF-539 CNS = test system: SF-539 CNS
SK-MEL-2 melanoma = test system: SK-MEL-2 melanoma
SK-MEL-28 melanoma = test system: SK-MEL-28 melanoma
SK-MEL-5 melanoma = test system: SK-MEL-5 melanoma
SK-OV-3 ovarian = test system: SK-OV-3 ovarian
SN12C renal = test system: SN12C renal
SNB-19 CNS = test system: SNB-19 CNS
SNB-75 CNS = test system: SNB-75 CNS
SR leukemia = test system: SR leukemia
SW-620 colon = test system: SW-620 colon
T-47D breast = test system: T-47D breast
TK-10 renal = test system: TK-10 renal
U251 CNS = test system: U251 CNS
UACC-257 melanoma = test system: UACC-257 melanoma
UACC-62 melanoma = test system: UACC-62 melanoma
UO-31 renal = test system: UO-31 renal

O=C1Nc2ccccc2/C1=C\c1c(Cl)nc2sccn12 gave a GI50 (786-0 renal) of 1.32 µM, a TGI (786-0 renal) of 4.94 µM and a GI50 (A498 renal) of 9.38 µM. The TGI (A498 renal) was 22.4 µM, the GI50 (A549 NSCLC) was 3.51 µM and the TGI (A549 NSCLC) was > 43.1 µM. The GI50 (ACHN renal) was 3.12 µM, the TGI (ACHN renal) was 18.2 µM and the GI50 (BT-549 breast) was 1.15 µM. The TGI (BT-549 breast) was 12.7 µM, the GI50 (CAKI-1 renal) was 1.22 µM and the TGI (CAKI-1 renal) was 4.8 µM. It also gave a GI50 (CCRF-CEM leukemia) of 2.68 µM, a TGI (CCRF-CEM leukemia) of 15.8 µM and a GI50 (COLO 205 colon) of 1.11 µM. The TGI (COLO 205 colon) was 5.97 µM, the GI50 (DU-145 prostate) was 5.75 µM and the TGI (DU-145 prostate) was 53.4 µM. The GI50 (EKVX NSCLC) was 1.88 µM, the TGI (EKVX NSCLC) was 13.8 µM and the GI50 (HCT-116 colon) was 1.94 µM. The TGI (HCT-116 colon) was 12.8 µM, the GI50 (HCT-15 colon) was 1.18 µM and the TGI (HCT-15 colon) was 8.46 µM. For the same compound, the GI50 (HOP-62 NSCLC) was 1.82 µM, the TGI (HOP-62 NSCLC) was 12.9 µM and the GI50 (HOP-92 NSCLC) was 4.31 µM. The TGI (HOP-92 NSCLC) was 11.1 µM, the GI50 (HS 578T breast) was 4.14 µM and the TGI (HS 578T breast) was 35.7 µM. For the same compound, the GI50 (HT29 colon) was 1.32 µM, the TGI (HT29 colon) was > 32.2 µM and the GI50 (IGROV1 ovarian) was 5.05 µM. The TGI (IGROV1 ovarian) was > 54.6 µM, the TGI (K-562 leukemia) was > 100 µM and the GI50 (KM12 colon) was 0.67 µM. It also gave a TGI (KM12 colon) of 19.4 µM, a GI50 (LOX IMVI melanoma) of 3.45 µM and a TGI (LOX IMVI melanoma) of 17.4 µM. It also gave a GI50 (M14 melanoma) of 2.02 µM, a TGI (M14 melanoma) of 9.23 µM and a GI50 (MALME-3M melanoma) of 5.48 µM. The TGI (MALME-3M melanoma) was > 44.7 µM, the GI50 (MCF7 breast) was 0.66 µM and the TGI (MCF7 breast) was 17.3 µM. It also gave a GI50 (MDA-MB-231 breast) of 6.87 µM, a TGI (MDA-MB-231 breast) of 22.8 µM and a GI50 (MDA-MB-435) of 0.441 µM. For the same compound, the TGI (MDA-MB-435) was 1.11 µM, the GI50 (MOLT-4 leukemia) was 3.52 µM and the TGI (MOLT-4 leukemia) was > 100 µM. For the same compound, the GI50 (NCI-H226 lung) was 6.11 µM, the TGI (NCI-H226 lung) was 16 µM and the GI50 (NCI-H23 lung) was 4.7 µM. It also gave a TGI (NCI-H23 lung) of 17.1 µM, a GI50 (NCI-H460 lung) of 2.76 µM and a TGI (NCI-H460 lung) of 29.8 µM. It also gave a GI50 (NCI-H522 lung) of 3.9 µM, a TGI (NCI-H522 lung) of 29.8 µM and a GI50 (NCI/ADR-RES ovarian) of 1.26 µM. It also gave a TGI (NCI/ADR-RES ovarian) of 7.64 µM, a GI50 (OVCAR-3 ovarian) of 1.36 µM and a TGI (OVCAR-3 ovarian) of 3.73 µM. The GI50 (OVCAR-4 ovarian) was 13.9 µM, the TGI (OVCAR-4 ovarian) was > 61.4 µM and the GI50 (OVCAR-5 ovarian) was 3.06 µM. It also gave a TGI (OVCAR-5 ovarian) of 9.39 µM, a GI50 (OVCAR-8 ovarian) of 3.85 µM and a TGI (OVCAR-8 ovarian) of 35.8 µM. For the same compound, the GI50 (PC-3 prostate) was 2.44 µM, the TGI (PC-3 prostate) was 23.9 µM and the GI50 (RPMI-8226 leukemia) was 1.17 µM. It also gave a TGI (RPMI-8226 leukemia) of 4.48 µM, a GI50 (RXF 393 renal) of 3.2 µM and a TGI (RXF 393 renal) of 19 µM. The GI50 (SF-268 CNS) was 5.41 µM, the TGI (SF-268 CNS) was 29.5 µM and the GI50 (SF-295 CNS) was 1.11 µM. For the same compound, the TGI (SF-295 CNS) was 3.24 µM, the GI50 (SF-539 CNS) was 4.47 µM and the TGI (SF-539 CNS) was > 43.3 µM. The GI50 (SK-MEL-2 melanoma) was 4.16 µM, the TGI (SK-MEL-2 melanoma) was > 41.2 µM and the GI50 (SK-MEL-28 melanoma) was 4.91 µM. For the same compound, the TGI (SK-MEL-28 melanoma) was 26.8 µM, the GI50 (SK-MEL-5 melanoma) was 1.77 µM and the TGI (SK-MEL-5 melanoma) was 8.51 µM. The GI50 (SK-OV-3 ovarian) was 4.18 µM, the TGI (SK-OV-3 ovarian) was 10.8 µM and the GI50 (SN12C renal) was 6.84 µM. It also gave a TGI (SN12C renal) of 20.6 µM, a GI50 (SNB-19 CNS) of 6.78 µM and a TGI (SNB-19 CNS) of 37.7 µM. It also gave a GI50 (SNB-75 CNS) of 3.23 µM, a TGI (SNB-75 CNS) of 8.34 µM and a GI50 (SR leukemia) of 0.359 µM. The TGI (SR leukemia) was > 100 µM, the GI50 (SW-620 colon) was 3 µM and the TGI (SW-620 colon) was > 58.9 µM. For the same compound, the GI50 (T-47D breast) was 8.88 µM, the TGI (T-47D breast) was 33.9 µM and the GI50 (TK-10 renal) was 3.24 µM. The TGI (TK-10 renal) was 8.21 µM, the GI50 (U251 CNS) was 2.45 µM and the TGI (U251 CNS) was 8.31 µM. For the same compound, the GI50 (UACC-257 melanoma) was 8.03 µM, the TGI (UACC-257 melanoma) was > 70.8 µM and the GI50 (UACC-62 melanoma) was 1.34 µM. It also gave a TGI (UACC-62 melanoma) of 11.9 µM, a GI50 (UO-31 renal) of 2.69 µM and a TGI (UO-31 renal) of 16.8 µM.
